Assays:
mosquitoes [1] = test: Three-chamber test apparatus, mosquito personal area repellency of hung patches with human test subject as attractant; type: in vivo; settings: Example 1, 2 patches 103 cm^2, 60 mg each; for % Repellency: no adhesive
Procedure: Various patch sizes and insect repellents were tested, initially using the test apparatus shown schematically generally at 20 in FIG. 3. The test apparatus 20 has a sample chamber 22, connected to a mosquito chamber 24, which is connected via an opening 34 to a remote chamber 26. Each chamber is generally cubical, with a volume of about 0.43 m^3.
The sample chamber 22 has an open end 28 on the side remote from the mosquito chamber 24. A screen 30 divides the sample chamber 22 from the mosquito chamber 24. The opening 34 between the mosquito chamber 24 and the remote chamber 26 is slightly constricted by side walls 32. However, the opening 34 is still sufficiently large that mosquitoes can freely move between the mosquito and remote chambers 24 and 26.
Four, screened, low-flow exhaust ports 36 are located in the side walls 32, the exhaust ports facing the open end 28. Air is drawn through the exhaust ports 36 and exhausted from the mosquito chamber 24 at a rate sufficient to draw air in through the open end 28 but insufficient to affect the flying of mosquitoes placed in the mosquito chamber 24 or to disturb the air in the remote chamber 26.
For each test, a human test subject 38 is placed at the open end 28 of the sample chamber 22, the test subject's breath providing the warmth, CO2, and moisture known to be human attractants for mosquitoes. The exhaust ports 36 pull air, along with those attractants, though the open end 28 and on through the sample chamber 22, the screen 30, and the mosquito chamber 24. The attractants thus leave the apparatus 20 without entering the remote chamber 26.
Mosquitoes are placed in the mosquito chamber 24 and are quickly attracted to the screen 30 by the human attractants. The open end 28 is large enough to expose primarily the upper torso and head of the test subject. Two patches 10 are hung one foot into the sample chamber 22 and approximately 20 cm down from the chamber's top (except as was done otherwise in particular experiments, as is noted, below).
Percent repellency was calculated as the percent of mosquitoes that had been initially introduced into the mosquito chamber 24 (most of which were attracted to the screen 30 before the patches 10 were put in place), that then were repelled from the screen when the patches were introduced. The “repellency” indicated in the table, below, for time zero reflects the mosquitoes that were not yet attracted to the screen 30 by the time the test patches 10 were introduced. […] The patches 10 used were 103 cm^2 in size, with no adhesive layer 18.
The patch material was a non-woven cloth material comprised of rayon, polyester, and polypropylene (as described in published U.S. Patent Application US20040082248), dosed with 60 mg of the active ingredient. The controls used no patches.
The same test apparatus 20 was used in the same way as described in Example 1, with the following changes. When a test included four patches 10, two were hung as in Example 1, and two were hung about 13 cm from the bottom of the chamber to simulate patches worn on the shoulders and at the waist of a user. In one test, as indicated in the table, below, the patches 10 were attached to the test subject's chest. Each individual patch was treated with the amount of insect repellent indicated. Time is shown in minutes.

mosquitoes [2] = test: Field test in southern Florida, one-minute biting count on lower leg of human test subjects wearing patches; type: in vivo
Source text: We also conducted some field tests of the present invention in southern Florida using patches 10 dosed with metofluthrin. Human test subjects and designated untreated control entered the test site, each test subject being separated by a minimum of 25 meters (approx. 75 feet). Shortly after all test subjects and an untreated control were set up in the test site, a 15 second ‘nuisance’ pre-count was taken by counting or best estimating the number of mosquitoes landing or touching the visual areas on the test suit.
Directly after the ‘nuisance’ count, a one-minute biting pre-count of a lower leg was taken. The pre-count began by having each subject roll up one pant leg to the knee then count the number of mosquitoes landing or biting on the exposed skin over a one minute period. Once a mosquito landed, the insect was pushed away (flicked, swatted or other) from the leg.
After the precounts were made, each test subject attached insect repellent patches 10 to predetermined areas on the test suit. The location of the patches is described below.
Mosquito land or bite counts were then made as described above for the pre-counts, with counts taken every 5 minutes for the first 20 minutes. After the 20 minute count, the test subjects and controls moved locations, walking approximately 15 meters. This was followed by their immediately taking a 15-second nuisance and one-minute biting count. Additional counts were then made at 25 and 30 minutes at that new location. After the 30 minute counts, the test subjects and controls moved location again, walking approximately 15 meters. This is followed by their immediately taking a 15-second nuisance and the one-minute biting count. An additional count was then made again at 35 minutes. The test was concluded after the 35 minute count.
The patches 10 used in the test were treated with metofluthrin, the 103 cm^2 patches bearing 60 mg and the 51.6 cm^2 patches bearing about 30 mg of metofluthrin. The patch material was selected either from a substrate made of a nylon-type material or from a non-woven cloth made of rayon, polyester, polypropylene, and polyethylene fibers. No difference in performance between the two materials was detected.
When four, 103 cm^2 patch samples were used, the patches were placed on the side of each shoulder and on the outwardly facing side of each knee. For the four, 51.6 cm^2 patch samples, the patches were placed on the side of each shoulder and on the top of the shoe. The 103 cm^2 patches were too big to place on the shoe, and therefore only the 51.6 cm^2 patches were placed there. For the two, 51.6 cm^2 patch testing, one patch was placed on one shoulder and another was placed on the outwardly facing side of the opposing knee.
The Average Percent Biting Repellency was calculated using the following formula:
C2=control count at time corresponding with treatment count
T1=precount for test area
T2=test area count at designated time
The percent repellency was calculated by the following formula: […]

## CC=C[C@@H]1[C@@H](C(=O)OCc2c(F)c(F)c(COC)c(F)c2F)C1(C)C (racemic) [metofluthrin, 2,3,5,6-tetrafluoro-4-methoxymethylbenzyl (EZ)-(1RS,3RS)-2,2-dimethyl-3-(prop-1-enyl)-cyclopropanecarboxylate]
Mosquitoes [1]
  personal area repellency (result in words): successful personal area repellency
Mosquitoes [1]; 5 min
  % Repellency: 72%
Mosquitoes [1]; 10 min
  % Repellency: 92%
Mosquitoes [1]; 15 min
  % Repellency: 96%
Mosquitoes [1]; 20 min
  % Repellency: 98%
Mosquitoes [1]; time 0 min (mosquitoes not yet attracted to screen)
  % Repellency: 10%
Mosquitoes [2]; 2 patches (51.6 cm^2, about 30 mg each), 3 reps, 0 min
  Percent Biting Repellency: 0%
Mosquitoes [2]; 2 patches (51.6 cm^2, about 30 mg each), 3 reps, 5 min
  Percent Biting Repellency: 42%
Mosquitoes [2]; 2 patches (51.6 cm^2, about 30 mg each), 3 reps, 10 min
  Percent Biting Repellency: 60%
Mosquitoes [2]; 2 patches (51.6 cm^2, about 30 mg each), 3 reps, 15 min
  Percent Biting Repellency: 90%
Mosquitoes [2]; 2 patches (51.6 cm^2, about 30 mg each), 3 reps, 20 min
  Percent Biting Repellency: 81%
Mosquitoes [2]; 2 patches (51.6 cm^2, about 30 mg each), 3 reps, 21 min, immediately after moving approx. 15 meters
  Percent Biting Repellency: 13%
Mosquitoes [2]; 2 patches (51.6 cm^2, about 30 mg each), 3 reps, 25 min
  Percent Biting Repellency: 82%
Mosquitoes [2]; 2 patches (51.6 cm^2, about 30 mg each), 3 reps, 30 min
  Percent Biting Repellency: 81%
Mosquitoes [2]; 2 patches (51.6 cm^2, about 30 mg each), 3 reps, 31 min, immediately after moving approx. 15 meters
  Percent Biting Repellency: 44%
Mosquitoes [2]; 2 patches (51.6 cm^2, about 30 mg each), 3 reps, 35 min
  Percent Biting Repellency: 73%
Mosquitoes [2]; 3 patches (103 cm^2, 60 mg each), 2 reps, 0 min
  Percent Biting Repellency: 0%
Mosquitoes [2]; 3 patches (103 cm^2, 60 mg each), 2 reps, 5 min
  Percent Biting Repellency: 75%
Mosquitoes [2]; 3 patches (103 cm^2, 60 mg each), 2 reps, 10 min
  Percent Biting Repellency: 100%
Mosquitoes [2]; 3 patches (103 cm^2, 60 mg each), 2 reps, 15 min
  Percent Biting Repellency: 100%
Mosquitoes [2]; 3 patches (103 cm^2, 60 mg each), 2 reps, 20 min
  Percent Biting Repellency: 100%
Mosquitoes [2]; 3 patches (103 cm^2, 60 mg each), 2 reps, 21 min, immediately after moving approx. 15 meters
  Percent Biting Repellency: 16%
Mosquitoes [2]; 3 patches (103 cm^2, 60 mg each), 2 reps, 25 min
  Percent Biting Repellency: 84%
Mosquitoes [2]; 3 patches (103 cm^2, 60 mg each), 2 reps, 30 min
  Percent Biting Repellency: 84%
Mosquitoes [2]; 3 patches (103 cm^2, 60 mg each), 2 reps, 31 min, immediately after moving approx. 15 meters
  Percent Biting Repellency: 64%
Mosquitoes [2]; 3 patches (103 cm^2, 60 mg each), 2 reps, 35 min
  Percent Biting Repellency: 100%
Mosquitoes [2]; 4 patches (103 cm^2), 2 reps, 0 min
  Percent Biting Repellency: 0%
Mosquitoes [2]; 4 patches (103 cm^2), 2 reps, 5 min
  Percent Biting Repellency: 96%
Mosquitoes [2]; 4 patches (103 cm^2), 2 reps, 10 min
  Percent Biting Repellency: 100%
Mosquitoes [2]; 4 patches (103 cm^2), 2 reps, 15 min
  Percent Biting Repellency: 100%
Mosquitoes [2]; 4 patches (103 cm^2), 2 reps, 20 min
  Percent Biting Repellency: 88%
Mosquitoes [2]; 4 patches (103 cm^2), 2 reps, 21 min, immediately after moving approx. 15 meters
  Percent Biting Repellency: 33%
Mosquitoes [2]; 4 patches (103 cm^2), 2 reps, 25 min
  Percent Biting Repellency: 50%
Mosquitoes [2]; 4 patches (103 cm^2), 2 reps, 30 min
  Percent Biting Repellency: 73%
Mosquitoes [2]; 4 patches (103 cm^2), 2 reps, 31 min, immediately after moving approx. 15 meters
  Percent Biting Repellency: 22%
Mosquitoes [2]; 4 patches (103 cm^2), 2 reps, 35 min
  Percent Biting Repellency: 96%
Mosquitoes [2]; 4 patches (103 cm^2, 60 mg each), 1 rep, 0 min
  Percent Biting Repellency: 0%
Mosquitoes [2]; 4 patches (103 cm^2, 60 mg each), 1 rep, 5 min
  Percent Biting Repellency: 85%
Mosquitoes [2]; 4 patches (103 cm^2, 60 mg each), 1 rep, 10 min
  Percent Biting Repellency: 94%
Mosquitoes [2]; 4 patches (103 cm^2, 60 mg each), 1 rep, 15 min
  Percent Biting Repellency: 100%
Mosquitoes [2]; 4 patches (103 cm^2, 60 mg each), 1 rep, 20 min
  Percent Biting Repellency: 92%
Mosquitoes [2]; 4 patches (103 cm^2, 60 mg each), 1 rep, 21 min, immediately after moving approx. 15 meters
  Percent Biting Repellency: 85%
Mosquitoes [2]; 4 patches (103 cm^2, 60 mg each), 1 rep, 25 min
  Percent Biting Repellency: 81%
Mosquitoes [2]; 4 patches (103 cm^2, 60 mg each), 1 rep, 30 min
  Percent Biting Repellency: 100%
Mosquitoes [2]; 4 patches (103 cm^2, 60 mg each), 1 rep, 31 min, immediately after moving approx. 15 meters
  Percent Biting Repellency: 61%
Mosquitoes [2]; 4 patches (103 cm^2, 60 mg each), 1 rep, 35 min
  Percent Biting Repellency: 94%
Mosquitoes [2]; patch sizes, dosages and locations of Example 3, even after user moved to a new location
  personal area repellency in field test (result in words): can successfully provide personal area repellency within a very brief time
